Patent US8236984B2, “Compound and use thereof in the treatment of amyloidosis” (Pentraxin Therapeutics Ltd., priority 2007, dated 2012)
Entries after “also recorded” stand apart in the source; their conditions may differ.

What was measured:
[1] = target: T1, transthyretin (Homo sapiens, UniProt P02766); assay: Stopped flow analysis of the kinetics of binding by transthyretin; conditions: 2 μM protein, 10 μM ligand, PBS pH 7.4, 5% DMSO, 20° C.
T1 construct: Native tetrameric transthyretin was purified from fractionated human plasma; from tissue; host or cells: human plasma
Experimental: 3.2.2 Stopped flow analysis of the kinetics of 4ajm15 binding by transthyretin. The kinetics of transthyretin binding to 4ajm15 were evaluated with a Bio-Logic SFM-300 stopped flow device coupled to a fluorescence detection system (Claix, France) using a cell path length of 1.5 mm. The excitation wavelength was 280 nm and emission was measured at wavelengths greater than 320 nm using a cut off filter. The experiments were performed at 20° C. in PBS pH 7.4 containing 5% DMSO with a final protein concentration of 2 μM in the presence of 10 μM 4ajm15. The kinetic traces fit well to a single-exponential function with a time constant of 2.17 s (±0.02 s). Transthyretin thus binds 4ajm15 very rapidly at physiological pH with the plateau of the quenching reaction being reached after only ˜11 sec.

[2] = target: transthyretin Ala60 (Homo sapiens, UniProt P02766); assay: Displacement of 125I-T4 from transthyretin in whole serum; assay type: binding; conditions: read-out: IC50 for displacement of T4 from transthyretin Ala60 in serum; whole serum of heterozygous subjects, mean
Excerpt: (§1) 3.2.3.2. Quantitative studies in serum. […] The immunoprecipitate was recovered by centrifugation, washed twice with 0.1 M Tris, 0.1 M NaCl, pH 8.0 and counted.

[3] = target: T2, transthyretin Tyr77 (Homo sapiens, UniProt P02766, S97Y); assay: as above; assay type: binding; conditions: whole serum of heterozygous subjects, mean
T2 construct: The displacement of T4 from transthyretin in whole serum; from tissue; host or cells: whole serum of heterozygous carriers
Excerpt: as §1

[4] = Solubility as noted for calorimetry; assay type: physicochemical; conditions: in words, reason ITC could not be performed
[5] = target: wild type transthyretin (Homo sapiens, UniProt P02766); assay: Mass spectrometric analysis of ligand dissociation under increasing cone voltage; assay type: binding; design: made in house
Excerpt: 4.3. Mass spectrometric analysis of dissociation of 4ajm15 from wild type and amyloidogenic variant transthyretin. ESMS spectra were acquired under increasing cone voltage conditions to induce stepwise dissociation of the ligand from wild type transthyretin and amyloidogenic variants V30M and L55P transthyretin. As the cone voltage increases splitting becomes apparent in the tetramer peaks, corresponding to apo (protein alone) and holo (protein+ligand) transthyretin as ligand begins to dissociate.
L55P transthyretin and [^15N, ^13C] wild type transthyretin in a 2 fold excess of 4ajm15. […] In spectrum β the onset of 4ajm15 dissociation from wild type tetramer is observed (a) while no ligand dissociation is observed from L55P transthyretin. Dissociation from wild type transthyretin progresses with increasing collisional energy in spectrum γ, but it is not until spectrum δ, where approximately 50% of the wild type is apo, that ligand dissociation from L55P transthyretin is observed (a).
V30M transthyretin and [^15N, ^13C] wild type transthyretin in a 2 fold excess of ligand. In A, at the onset of 4ajm15 dissociation (spectrum β) the peak height corresponding to apo V30M transthyretin is lower than that for wild type (labelled a and a respectively) for each charge state. At high energy level (γ), ligand dissociation from wild type is complete while a proportion of […] V30M remains (h). […]

[6] = target: T1, transthyretin; assay: Isothermal titration calorimetry of transthyretin-ligand binding; conditions: ITC, Tris-NaCl pH 8.0, 2% DMSO, 37° C.
Experimental: 3.3.3 Isothermal titration calorimetry (itc) of transthyretin-mds84 ligand binding: Thermodynamic parameters of transthyretin-mds84 ligand binding were measured directly by isothermal titration calorimetry (VP-ITC, MicroCal LLC, Milton Keynes, UK). An initial injection of 1 μl of mds84 at 0.348 mM was made into transthyretin at a final concentration of 0.029 mM tetramer, followed, at 240 sec intervals, by 35 successive 8 μl injections. The diluent was Tris-NaCl pH 8.0 with 2% (v/v) DMSO. The sample cell was stirred at 310 rpm and cell contents were maintained at 37° C. After correction for volume displacement and plotting against the molar ratio of injected ligand to transthyretin tetramer, integration of the raw thermogram (FIG. 5, upper graph) yielded a binding isotherm (FIG. 5, lower graph) that was best fitted (determined by χ^2 analysis) to a model with a single set of identical sites by non-linear least squares analysis in ORIGIN v7.0 (MicroCal LLC).

[7] = target: L55P variant transthyretin (Homo sapiens, UniProt P02766, L75P); assay: Differential scanning calorimetry of transthyretin with ligand; assay type: binding; conditions: five fold molar excess of ligand

time constant of binding (single-exponential fit) [1] [s] | time to plateau of the quenching reaction [1] [s] | IC50 [2] [µM] | IC50 [3] [µM] | peak height of apo wild type transthyretin at onset of dissociation (spectrum β) ([5]; equimolar 4.4 μM with V30M, 2 fold excess of ligand) [%] | enthalpy (ΔH) [6] [kcal/mol] | Kd ([6]; 0.029 mM tetramer, read-out: dissociation constant (Kd)) [nM] | Tm of L55P variant transthyretin with the ligand [7] [°C] | increase in Tm of L55P variant transthyretin [7] [°C] | SMILES | solubility [4] | relative binding avidities for ligand among transthyretin forms ([5]; wild type versus V30M and L55P, increasing cone voltage)
2.17 | ~11 | 26.5 | 26.2 | ~75 |  |  |  |  | O=C(O)c1ccccc1Nc1cc(Cl)c(OCCCCCCCCCCCOc2c(Cl)cc(Nc3ccccc3C(=O)O)cc2Cl)c(Cl)c1 [4ajm15, 2,2′-(4,4′-(undecane-1,11-diylbis(oxy))bis(3,5-dichloro-4,1-phenylene))bis(azanediyl)dibenzoic acid] | limited solubility; also recorded: too insoluble | wild type transthyretin<V30M transthyretin<L55P transthyretin
 |  |  |  |  | -7.95 | 505 | 98.3 | 5.9 | O=C(O)c1ccccc1Nc1cc(Cl)c(OCCCCCCCOc2c(Cl)cc(Nc3ccccc3C(=O)O)cc2Cl)c(Cl)c1 [mds84, 2,2′-(4,4′-(heptane-1,7-diylbis(oxy))bis(3,5-dichloro-4,1-phenylene))bis(azanediyl)dibenzoic acid] |  | 
